US20260060957A1, “COMPOUNDS AND COMPOSITIONS USEFUL FOR TREATMENT OF PROLIFERATIVE DISEASE OR DISORDER” (University of Houston System, priority 2023, published 2026)

What was measured:
Format in all cases: cell-based, human
[1] = tested on: cleaved caspase 3 (c-Casp3); assay: Western blot of stem cells exposed to IAP antagonists and ponatinib (cleaved caspase 3); conditions: BE stem cells exposed to IAP antagonist and ponatinib; six-hour exposure; FIG. 42c
Text: Based on the properties of diverse IAP antagonists in combination with ponatinib towards BE stem cells, synthetic chemistry was employed to expand the repertoire of IAP antagonists available for these studies. A squaramide linker strategy was chosen for generating bivalent IAP antagonists based on its planar structure and separation of the headgroups that contain the peptide […] domains that interact with cIAP1, cIAP2, and XIAPs, and screened them in dose-response assays against BE stem cells in the presence and absence of ponatinib (FIG. 42d).

[2] = tested on: RIPK1 S320/S166 phosphorylation, cIAP1, cIAP2, cleaved Caspase 3 in LGD stem cells; assay: Western blot of LGD stem cells (RIPK1 phosphorylation, cIAP1/cIAP2, cleaved Caspase 3); conditions: ponatinib 300 nM, 7532N 10 nM, 16 hr per FIG. 42j
BE stem cells = assay: Survival of Barrett's esophagus (BE) stem cells, high-throughput screen and dose-response
Text: The present example describes methods used for testing the efficacy of compounds described herein. The selective growth of stem cells of cancers, of their precursor lesions, and of normal and chronically diseased epithelial tissues is described in the references below. In brief, biopsied tissues are reduced to single cell suspensions and plated onto lawns of irradiated 3T3-J2 feeder cells in specialized StemEcho media and libraries of colonies are evident in 7-10 days. Single cell-derived clones are generated by single cell FACS sorting to 384 well plates and wells with individual colonies are expanded, analyzed by molecular genetics, and grown as discrete clones.
After 2-5 days, the cells are fixed using paraformaldehyde and the human cells are labelled with human-specific antibodies followed by fluorochrome-labelled secondary antibodies. Human cell numbers are quantified via high-throughput imaging technology (CellInsight CX7 LED, Thermo), and data analyzed by Excel.
To learn more about the relative efficacy of these IAP antagonists in a synthetic lethal combination with ponatinib, we compared their effects in dose-response assays in vitro against BE stem cells. […]

SMILES: CN[C@@H](C)C(=O)N[C@H](C(=O)N1CCC[C@H]1C(=O)N[C@H]1c2ccccc2C[C@H]1OCC#CC#CCO[C@@H]1Cc2ccccc2[C@@H]1NC(=O)[C@@H]1CCCN1C(=O)[C@@H](NC(=O)[C@H](C)NC)C1CCCCC1)C1CCCCC1 [AZD5582]
- Induction of cleaved caspase 3 (c-Casp3), western blot [1]: induced a cleaved caspase 3

SMILES: CN[C@@H](C)C(=O)N[C@H](C(=O)N1CCC[C@H]1C(=O)N[C@H]1c2ccccc2C[C@H]1OCCOCCNc1c(NCCOCCO[C@@H]2Cc3ccccc3[C@@H]2NC(=O)[C@@H]2CCCN2C(=O)[C@@H](NC(=O)[C@H](C)NC)C2CCCCC2)c(=O)c1=O)C1CCCCC1 [Compound I-1]
- RIPK1 phosphorylation, cIAP1/cIAP2 and apoptosis in LGD stem cells, western blot [2]: degradation of cIAP1 and cIAP2 without inducing cleaved Caspase 3

SMILES: CN[C@@H](C)C(=O)N[C@H]1CCCC[C@H]2CC[C@@H](C(=O)N[C@@H](c3ccccc3)c3cn(CCCCc4ccc(CCCCn5cc([C@@H](NC(=O)[C@@H]6CC[C@@H]7CCCC[C@H](NC(=O)[C@H](C)NC)C(=O)N76)c6ccccc6)nn5)cc4)nn3)N2C1=O [SM-164]
- Induction of cleaved caspase 3 (c-Casp3), western blot [1]: induced a cleaved caspase 3

SMILES: Cc1cn(-c2cc(NC(=O)c3ccc(C)c(Nc4nccc(-c5cccnc5)n4)c3)cc(C(F)(F)F)c2)cn1 [nilotinib]
- Identification in high-throughput screens (BE stem cells; screens against BE and ESO stem cells): not identified in our screens

SMILES: Cc1ccc(C(=O)Nc2ccc(CN3CCN(C)CC3)c(C(F)(F)F)c2)cc1C#Cc1cnc2cccnn12 [ponatinib]
- Inhibition of BE stem cells (BE stem cells; eight patient-derived BE stem cells, FIG. 40d): 20%
